Laboratory results taken from US12678507B2, “Protein tyrosine kinase 6 (PTK6) degradation / disruption compounds and methods of use” (Icahn School of Medicine at Mount Sinai, priority 2018, dated 2026).

What was measured:
[1] = molecular target: T1, PTK6 (Homo sapiens, UniProt Q13882); assay: Western blot of PTK6 protein levels in MDA-MB231 cells; type: cell-based; conditions: MDA-231 (MDA-MB231) cells, 500 nM, 24 hours, Western blot (FIGS. 3-5)
T1 construct: endogenous in cells; host or cells: MDA-MB231 cells (ATCC)
Method: FIGS. 2-5. Effects of exemplary compounds on reducing PTK6 protein levels in breast cancer cells. Triple negative MDA-MB231 cells were treated for 24 hours with 500 nM, 2 uM or 2.5 uM of test compound and lysed. Proteins were resolved by SDS/PAGE and immunoblotted with antibody to PTK6 (Santa Cruz, Cell Signaling) or GAPDH loading control (Cell Signaling).
FIG. 13. PTK6 degraders suppress PTK6 expression. MDA-MB231 cells were treated with compounds (500 nM or 1 uM) for 24 hours in monolayer cultures. Cells were lysed and lysates were probed with anti-PTK6 antibody.
MDA-MB231 cells were treated with DMSO or indicated compounds at 2.5 uM, 2 uM or 500 nM for 24 hours.
MDA-MB231 cells were treated with compounds (500 nM or 1 uM) for 24 hours in monolayer cultures. Cells were lysed and lysates were probed with anti-PTK6 antibody.
(§1) Cells were lysed in 1% NP-40 lysis buffer containing NaF, Na3VO4, Leupeptin, PMSF, aprotinin, and phosphatase inhibitor (PhosSTOP, Roche) as described previously (Irie et al., 2010). Cleared cell lysates were stored at −80° C. and were analyzed by western analysis as described previously (Irie et al., 2010).

[2] = test system: MDA-MB231 cells; assay: 3D Matrigel culture of MDA-MB231 triple negative breast cancer cells (growth, invasive branching, viability); type: cell-based; conditions: 1 μM, 3 days, 3D cultures (FIG. 6)
Method: FIG. 6a. PTK6 degraders, but not kinase activity inhibitor suppress viability in 3D cultures. MDA-MB231 triple negative breast cancer cells were seeded into 3D Matrigel cultures (4×10^3 cells/well) and treated with indicated PTK6 degraders, negative control compounds or PTK6 kinase activity inhibitor at 1 uM for 5 days with re-feeding of compound after 3 days in culture. Viability was assessed using 3D Cell Titer glo (Promega). FIG. 6b. Expression of PTK6 in cells treated with PTK6 degraders, negative control compounds or PTK6 kinase activity inhibitor was assessed after 24 hour treatment in monolayer cultures with 1 uM of compound. Cells were lysed and proteins were resolved and probed with anti-PTK6 antibody (Cell Signaling)
FIG. 12a. […] Expression of PTK6 in cells treated with PTK6 degraders, negative control compounds or PTK6 kinase activity inhibitor was assessed after 24 hour treatment in monolayer cultures with 1 uM of compound. […] Viability was assessed using 3D Cell Titer glo (Promega). […]
MDA-MB231 triple negative breast cancer cells were seeded into 3D Matrigel cultures (4×10^3 cells/well) and treated with indicated PTK6 degraders, negative control compounds or PTK6 kinase activity inhibitor at 1 uM for 6 days with re-feeding of compound after 3 days in culture (FIG. 12B). Viability was assessed using 3D Cell Titer glo (Promega). […]

[3] = test system: MCF7 cells; assay: 3D Cell Titer Glo viability of MCF7 ER+ breast cancer cells; type: cell-based; conditions: 0, 1, 2 and 5 μM, 4 days, 3D Cell Titer Glo (FIG. 7)
Method: FIG. 7a. PTK6 degrader treatment suppresses growth of ER+ breast cancer cells. ER+ breast cancer cells (MCF-7) were treated with indicated concentrations of top candidate degraders, negative control compounds or PTK6 kinase activity inhibitor for 24 hours, lysed and proteins were resolved by SDS-PAGE. PTK6 expression was interrogated by Western analysis. FIG. 7b. MCF-7 cells were seeded into 3D Matrigel cultures and treated with indicated PTK6 degraders or PTK6 kinase inhibitor for 4 days. Viability was quantified using 3-D Cell Titer glo (Promega).
MCF7 cells were treated with YX39-103, YX39-105, and compound 21d at 0, 1, 2 and 5 μM for 4 days using 3D Cell Titer Glo (Promega) assay conditions.
MDA-MB231, MCF-7, OV2008 and Hey C2 cells (3,000 cells) were added to 8-well chamber slides (BD Biosciences) coated with 50 μl of growth factor-reduced Matrigel™ Matrix basement membrane (Corning). Treatment with degrader was begun later the same day. Media was replaced every 3 days. Cells were imaged using the Axiovert 25 inverted microscope (Carl Zeiss AB). CellTiter-Glo 3D Cell Viability Assay (Promega) was used to quantitate viability of cells grown in Matrigel™ in 96-well plates.

[4] = test system: CP70 cells; assay: 3D culture viability of platinum resistant ovarian cancer cells CP70; type: cell-based; conditions: 2 uM, 6 days, 3D culture (FIG. 8)
Method: FIG. 8. Treatment with PTK6 degraders, but not kinase activity inhibitor, suppress viability of chemotherapy-resistant ovarian cancer cells (CP70). Cells were seeded into 3D Matrigel cultures and treated with compounds (2 uM) for 6 days. Viability was assessed using 3D Cell Titre glo assay (Promega)
Platinum resistant ovarian cancer cells CP70 were treated with PTK6 degrader or kinase inhibitor P21d (2 uM) for 6 days in 3D culture. Viability after 6 days was assessed by 3D Cell Titer glo.

[5] = molecular target: T1, PTK6; assay: PTK6 degradation after MG132 proteasome inhibitor pretreatment (Western); type: cell-based; conditions: MDA-MB231 cells, MG132 10 uM 2 hours, then degrader 4 hours (FIG. 9)
Method: FIG. 9. PTK6 degrader suppresses PTK6 expression in a proteasome-dependent manner. MDA-MB231 cells (left) or OV2008 cells (right) were pre-treated with DMSO or MG-132 (10 uM) for two hours, then treated for an additional 4 hours with DMSO or PTK6 degrader at the indicated concentrations.
MDA-MB231 cells were pre-treated with MG132 (10 uM) or DMSO for 2 hours, then treated for additional 4 hours with PTK6 degrader YX39-105 or DMSO. Cells were lysed and expression of PTK6 was assessed by Western analysis.
as §1

[6] = molecular target: T1, PTK6; assay: PTK6 degradation after PTK6 kinase inhibitor P21d pretreatment (Western); type: cell-based; conditions: MDA-MB231 cells, P21d 5 uM 2 hours, then degrader 24 hours (FIG. 10)
Method: FIG. 10. PTK6 kinase activity inhibitor pre-treatment prevents PTK6 degrader-dependent suppression of PTK6 expression. MDA-MB231 cells in monolayer cultures were pre-treated with DMSO or PTK6 kinase activity inhibitor (5 uM), then treated for an additional 24 hours with PTK6 degrader, YX39-105. Cells were lysed and expression of PTK6 was assessed by Western analysis.
MDA-MB231 cells pretreated with DMSO or PTK6 kinase activity inhibitor, P21d, (5 uM) for 2 hours were subsequently treated with PTK6 degrader YX39-105 for 24 hours. Expression of PTK6 was assessed by Western analysis.
as §1

[7] = test system: TNBC cells; conditions: compared with PTK6 shRNA; cited from earlier work
[8] = compared with shRNA, all cell lines evaluated; cited from earlier work

T1 sequence (Q13882 whole entry): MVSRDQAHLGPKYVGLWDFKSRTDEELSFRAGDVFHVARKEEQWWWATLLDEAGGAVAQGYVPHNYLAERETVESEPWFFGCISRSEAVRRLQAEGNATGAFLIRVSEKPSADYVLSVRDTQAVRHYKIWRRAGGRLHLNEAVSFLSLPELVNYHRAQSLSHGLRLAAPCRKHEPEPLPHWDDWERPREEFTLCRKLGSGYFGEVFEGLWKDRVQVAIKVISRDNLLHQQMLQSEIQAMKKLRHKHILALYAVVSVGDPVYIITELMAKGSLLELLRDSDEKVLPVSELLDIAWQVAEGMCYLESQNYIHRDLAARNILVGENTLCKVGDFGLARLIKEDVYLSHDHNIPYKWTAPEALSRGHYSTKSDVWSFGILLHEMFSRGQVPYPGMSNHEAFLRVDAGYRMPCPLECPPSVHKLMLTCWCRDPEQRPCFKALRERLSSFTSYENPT

SMILES	reducing PTK6 protein levels / suppress PTK6 expression [1]	growth and invasive branching in 3D cultures [2]	viability of MCF7 cells [3]	viability of chemotherapy-resistant ovarian cells (CP70) [4]	further results
Cc1ncsc1-c1ccc(CNC(=O)[C@@H]2C[C@@H](O)CN2C(=O)[C@@H](NC(=O)CCCCCCNC(=O)CN2CCN(C(=O)c3ccc(Nc4nc(C5CC5)cn5c(-c6cn[nH]c6)cnc45)c(F)c3)CC2)C(C)(C)C)cc1 [YX39-103, (2S,4R)-1-((S)-2-(7-(2-(4-(4-((6-cyclopropyl-3-(1H-pyrazol-4-yl)imidazo[1,2-a]pyrazin-8-yl)amino)-3-fluorobenzoyl)piperazin-1-yl)acetamido)heptanamido)-3,3-dimethylbutanoyl)-4-hydroxy-N-(4-(4-methylthiazol-5-yl)benzyl)pyrrolidine-2-carboxamide]	effective in reducing PTK6 protein levels	significantly suppressed growth and invasive branching	significantly impaired viability of MCF7 cells in a dose-dependent manner	Suppressed Viability	
Cc1ncsc1-c1ccc(CNC(=O)[C@@H]2C[C@@H](O)CN2C(=O)[C@@H](NC(=O)CCCCCCCCNC(=O)CN2CCN(C(=O)c3ccc(Nc4nc(C5CC5)cn5c(-c6cn[nH]c6)cnc45)c(F)c3)CC2)C(C)(C)C)cc1 [YX39-105, (2S,4R)-1-((S)-2-(9-(2-(4-(4-((6-cyclopropyl-3-(1H-pyrazol-4-yl)imidazo[1,2-a]pyrazin-8-yl)amino)-3-fluorobenzoyl)piperazin-1-yl)acetamido)nonanamido)-3,3-dimethylbutanoyl)-4-hydroxy-N-(4-(4-methylthiazol-5-yl)benzyl)pyrrolidine-2-carboxamide]	effective in reducing PTK6 protein levels	significantly suppressed growth and invasive branching	significantly impaired viability of MCF7 cells in a dose-dependent manner	Suppressed Viability	PTK6 degradation with MG132 pretreatment [5]: Prevents PTK6 from being Degraded; PTK6 degradation with PTK6 inhibitor pretreatment [6]: Prevents PTK6 from being Degraded
Cc1ncsc1-c1ccc(CNC(=O)[C@@H]2C[C@@H](O)CN2C(=O)[C@@H](NC(=O)COCCOCCOCC(=O)N2CCN(C(=O)c3ccc(Nc4nc(C5CC5)cn5c(-c6cn[nH]c6)cnc45)c(F)c3)CC2)C(C)(C)C)cc1 [YX79-42, (2S,4R)-1-((S)-2-(tert-butyl)-14-(4-(4-((6-cyclopropyl-3-(1H-pyrazol-4-yl)imidazo[1,2-a]pyrazin-8-yl)amino)-3-fluorobenzoyl)piperazin-1-yl)-4,14-dioxo-6,9,12-trioxa-3-azatetradecanoyl)-4-hydroxy-N-(4-(4-methylthiazol-5-yl)benzyl)pyrrolidine-2-carboxamide]	potently suppress PTK6 expression				
O=C(c1ccc(Nc2nc(C3CC3)cn3c(-c4cn[nH]c4)cnc23)c(F)c1)N1CCOCC1 [compound 21d]					EMT regulation of TNBC cells [7]: phenocopied the effects of PTK6 shRNA; 3D growth [8]: did not consistently phenocopy the effects of shRNA

More lines, main results first:

reducing PTK6 protein levels / suppress PTK6 expression [1]	SMILES	growth and invasive branching in 3D cultures [2]	viability of MCF7 cells [3]	viability of chemotherapy-resistant ovarian cells (CP70) [4]	further results
potently suppress PTK6 expression	Cc1ncsc1-c1ccc(CNC(=O)[C@@H]2C[C@@H](O)CN2C(=O)[C@@H](NC(=O)CCCCCCC(=O)NCCN2CCN(C(=O)c3ccc(Nc4nc(C5CC5)cn5c(-c6cn[nH]c6)cnc45)c(F)c3)CC2)C(C)(C)C)cc1 [YX79-59, N^1-(2-(4-(4-((6-cyclopropyl-3-(1H-pyrazol-4-yl)imidazo[1,2-a]pyrazin-8-yl)amino)-3-fluorobenzoyl)piperazin-1-yl)ethyl)-N^8-((S)-1-((2S,4R)-4-hydroxy-2-((4-(4-methylthiazol-5-yl)benzyl)carbamoyl)pyrrolidin-1-yl)-3,3-dimethyl-1-oxobutan-2-yl)octanediamide]				
potently suppress PTK6 expression	Cc1ncsc1-c1ccc(CNC(=O)[C@@H]2C[C@@H](O)CN2C(=O)[C@@H](NC(=O)COCCOCC(=O)NCCN2CCN(C(=O)c3ccc(Nc4nc(C5CC5)cn5c(-c6cn[nH]c6)cnc45)c(F)c3)CC2)C(C)(C)C)cc1 [YX79-65, (2S,4R)-1-((S)-2-(tert-butyl)-14-(4-(4-((6-cyclopropyl-3-(1H-pyrazol-4-yl)imidazo[1,2-a]pyrazin-8-yl)amino)-3-fluorobenzoyl)piperazin-1-yl)-4,11-dioxo-6,9-dioxa-3,12-diazatetradecanoyl)-4-hydroxy-N-(4-(4-methylthiazol-5-yl)benzyl)pyrrolidine-2-carboxamide]				
